# Laboratory results: patent US20120220562A1, “Anti-Viral Compounds” (ABBOTT LABAORATORIES, priority 2011, published 2012)
# Tested on: HCV 1b-Con1 replicon
# Assay: HCV 1b-Con1 replicon assay in the presence of 5% FBS
# Type: cell-based
# Conditions: Hepatitis C virus
row,SMILES,EC50 [nM]
1,"COC(=O)N[C@H](C(=O)N1CCC[C@H]1c1nc2cc([C@H]3CC[C@H](c4ccc5[nH]c([C@@H]6CCCN6C(=O)[C@@H](NC(=O)OC)C(C)C)nc5c4)N3c3cc(F)c(N4C[C@H]5CCCC[C@H]5C4)c(F)c3)ccc2[nH]1)C(C)C [Example 4.3, methyl {(2S)-1-[(2S)-2-{5-[(2R,5R)-1-{3,5-difluoro-4-[(3aR,7aS)-octahydro-2H-isoindol-2-yl]phenyl}-5-{2-[(2S)-1-{(2S)-2-[(methoxycarbonyl)amino]-3-methylbutanoyl}pyrrolidin-2-yl]-1H-benzimidazol-5-yl}pyrrolidin-2-yl]-1H-benzimidazol-2-yl}pyrrolidin-1-yl]-3-methyl-1-oxobutan-2-yl}carbamate]",< 0.1
2,"COC(=O)N[C@H](C(=O)N1CCC[C@H]1c1nc2ccc([C@H]3CC[C@H](c4ccc5nc([C@@H]6CCCN6C(=O)[C@@H](NC(=O)OC)C(C)C)[nH]c5c4)N3c3cc(F)c(N4CCC(F)(c5ccccc5)CC4)c(F)c3)cc2[nH]1)C(C)C [Example 4.35, methyl {(2S)-1-[(2S)-2-{6-[(2R,5R)-1-[3,5-difluoro-4-(4-fluoro-4-phenylpiperidin-1-yl)phenyl]-5-{2-[(2S)-1-{(2S)-2-[(methoxycarbonyl)amino]-3-methylbutanoyl}pyrrolidin-2-yl]-1H-benzimidazol-6-yl}pyrrolidin-2-yl]-1H-benzimidazol-2-yl}pyrrolidin-1-yl]-3-methyl-1-oxobutan-2-yl}carbamate]",< 0.1
3,"COC(=O)N[C@H](C(=O)N1CCC[C@H]1c1nc2cc([C@@H]3CC[C@@H](c4ccc5[nH]c([C@@H]6CCCN6C(=O)[C@@H](NC(=O)OC)[C@@H](C)OC)nc5c4)N3c3ccc(N4CCCCC4)c(F)c3)ccc2[nH]1)[C@@H](C)OC [Example 3.16, methyl {(2S,3R)-1-[(2S)-2-{5-[(2S,5S)-1-[3-fluoro-4-(piperidin-1-yl)phenyl]-5-(2-{(2S)-1-[N-(methoxycarbonyl)-O-methyl-L-threonyl]pyrrolidin-2-yl}-1H-benzimidazol-5-yl)pyrrolidin-2-yl]-1H-benzimidazol-2-yl}pyrrolidin-1-yl]-3-methoxy-1-oxobutan-2-yl}carbamate]",0.1 to 1
4,"COC(=O)N[C@H](C(=O)N1CCC[C@H]1c1nc2cc([C@H]3CC[C@@H](c4cc5nc([C@@H]6CCCN6C(=O)[C@@H](NC(=O)OC)C(C)C)[nH]c5cc4F)N3c3cnc(N4CCC(c5ccccc5)CC4)nc3)c(F)cc2[nH]1)C(C)C [Example 3.46, methyl {(2S)-1-[(2S)-2-(6-fluoro-5-{(2R,5S)-5-{6-fluoro-2-[(2S)-1-{(2S)-2-[(methoxycarbonyl)amino]-3-methylbutanoyl}pyrrolidin-2-yl]-1H-benzimidazol-5-yl}-1-[2-(4-phenylpiperidin-1-yl)pyrimidin-5-yl]pyrrolidin-2-yl}-1H-benzimidazol-2-yl)pyrrolidin-1-yl]-3-methyl-1-oxobutan-2-yl}carbamate]",< 0.1
5,"COC(=O)N[C@H](C(=O)N1CCC[C@H]1c1nc2c(C)c([C@H]3CC[C@@H](c4ccc5[nH]c([C@@H]6CCCN6C(=O)[C@@H](NC(=O)OC)C(C)C)nc5c4C)N3c3ccc(C(C)(C)C)cc3)ccc2[nH]1)C(C)C [Example 6.8, methyl {(2S)-1-[(2S)-2-{5-[(2R,5S)-1-(4-tert-butylphenyl)-5-{2-[(2S)-1-{(2S)-2-[(methoxycarbonyl)amino]-3-methylbutanoyl}pyrrolidin-2-yl]-4-methyl-1H-benzimidazol-5-yl}pyrrolidin-2-yl]-4-methyl-1H-benzimidazol-2-yl}pyrrolidin-1-yl]-3-methyl-1-oxobutan-2-yl}carbamate]",< 0.1
